From patent publication US8765940B2 (priority 2009, dated 2014)

Target: PI3Kδ (Homo sapiens (Human), UniProt O00329)
Format: biochemical
Details: PI3Kδ Alphascreen assay

Chain of PI3Kδ (O00329 whole entry): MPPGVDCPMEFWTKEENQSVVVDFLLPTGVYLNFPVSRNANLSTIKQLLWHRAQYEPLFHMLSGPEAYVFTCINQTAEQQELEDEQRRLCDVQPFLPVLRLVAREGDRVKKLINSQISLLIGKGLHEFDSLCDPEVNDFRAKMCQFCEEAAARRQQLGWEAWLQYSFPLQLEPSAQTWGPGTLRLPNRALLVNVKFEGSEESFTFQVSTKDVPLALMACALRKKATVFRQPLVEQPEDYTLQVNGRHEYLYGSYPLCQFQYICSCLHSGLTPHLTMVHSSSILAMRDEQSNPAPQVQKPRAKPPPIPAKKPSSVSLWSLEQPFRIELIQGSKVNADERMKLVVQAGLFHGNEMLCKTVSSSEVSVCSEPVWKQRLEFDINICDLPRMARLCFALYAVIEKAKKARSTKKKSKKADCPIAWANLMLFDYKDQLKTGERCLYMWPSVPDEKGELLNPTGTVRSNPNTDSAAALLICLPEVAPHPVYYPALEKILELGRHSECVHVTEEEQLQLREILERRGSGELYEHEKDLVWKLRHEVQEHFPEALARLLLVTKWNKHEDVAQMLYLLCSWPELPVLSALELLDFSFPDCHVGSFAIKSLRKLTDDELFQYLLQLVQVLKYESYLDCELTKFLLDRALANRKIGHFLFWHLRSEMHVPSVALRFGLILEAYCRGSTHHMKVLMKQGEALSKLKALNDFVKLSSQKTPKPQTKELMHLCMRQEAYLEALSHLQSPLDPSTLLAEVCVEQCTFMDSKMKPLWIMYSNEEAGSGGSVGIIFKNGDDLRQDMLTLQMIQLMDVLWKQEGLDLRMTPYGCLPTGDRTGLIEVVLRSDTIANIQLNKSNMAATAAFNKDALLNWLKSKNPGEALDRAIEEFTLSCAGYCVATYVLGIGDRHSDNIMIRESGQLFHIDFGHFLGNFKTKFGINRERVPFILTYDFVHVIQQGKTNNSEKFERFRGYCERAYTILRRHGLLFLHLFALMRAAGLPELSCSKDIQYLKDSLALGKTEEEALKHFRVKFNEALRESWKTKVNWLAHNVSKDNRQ
Chain of PI3Kδ (P27986 whole entry partner): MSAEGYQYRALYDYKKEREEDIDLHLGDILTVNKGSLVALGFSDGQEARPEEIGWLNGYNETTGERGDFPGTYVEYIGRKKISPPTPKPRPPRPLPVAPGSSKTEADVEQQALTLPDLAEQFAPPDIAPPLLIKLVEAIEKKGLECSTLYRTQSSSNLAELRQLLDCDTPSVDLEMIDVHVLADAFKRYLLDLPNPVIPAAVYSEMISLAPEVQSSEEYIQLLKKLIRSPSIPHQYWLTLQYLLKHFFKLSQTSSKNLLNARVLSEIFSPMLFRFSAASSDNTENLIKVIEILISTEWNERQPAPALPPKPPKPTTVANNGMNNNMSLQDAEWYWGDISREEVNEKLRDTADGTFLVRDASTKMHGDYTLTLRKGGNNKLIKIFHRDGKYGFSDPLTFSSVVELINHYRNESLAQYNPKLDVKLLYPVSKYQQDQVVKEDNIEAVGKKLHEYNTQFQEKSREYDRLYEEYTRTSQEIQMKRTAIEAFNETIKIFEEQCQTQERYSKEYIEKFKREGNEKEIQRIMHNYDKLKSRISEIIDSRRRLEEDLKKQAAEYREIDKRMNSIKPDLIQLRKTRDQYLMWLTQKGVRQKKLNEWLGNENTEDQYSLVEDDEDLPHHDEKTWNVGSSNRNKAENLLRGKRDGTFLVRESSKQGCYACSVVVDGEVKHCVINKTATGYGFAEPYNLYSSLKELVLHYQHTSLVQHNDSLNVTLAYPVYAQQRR

Structure (SMILES) | Ki [nM]
Cc1c(Cc2cccc(C(F)(F)F)c2)nc2cc(F)cc(F)c2c1N1CC(C)(C)c2ncc(N3CCOCC3)cc21 [4-(3,3-dimethyl-6-(4-morpholinyl)-2,3-dihydro-1H-pyrrolo[3,2-b]pyridin-1-yl)-5,7-difluoro-3-methyl-2-(3-(trifluoromethyl)benzyl)quinoline] | 17.3
Cc1ccnc(-c2nc3cc(F)cc(F)c3c(N3CC(C)(C)c4ncc(N5CCOCC5)cc43)c2C)c1 [4-(3,3-dimethyl-6-(4-morpholinyl)-2,3-dihydro-1H-pyrrolo[3,2-b]pyridin-1-yl)-5,7-difluoro-3-methyl-2-(4-methyl-2-pyridinyl)quinoline] | 18.4
Cc1c(-c2cncc(S(C)(=O)=O)c2)nc2cc(F)cc(F)c2c1N1CC(C)(C)c2ncc(N3CCOCC3)cc21 [4-(3,3-dimethyl-6-(4-morpholinyl)-2,3-dihydro-1H-pyrrolo[3,2-b]pyridin-1-yl)-5,7-difluoro-3-methyl-2-(5-(methylsulfonyl)-3-pyridinyl)quinoline] | 16.7
Cc1cncc(-c2nc3cc(F)cc(F)c3c(N3CC(C)(C)c4ncc(N5CCOCC5)cc43)c2C)c1 [4-(3,3-dimethyl-6-(4-morpholinyl)-2,3-dihydro-1H-pyrrolo[3,2-b]pyridin-1-yl)-5,7-difluoro-3-methyl-2-(5-methyl-3-pyridinyl)quinoline] | 3
Cc1c(/C=C/c2ccccc2)nc2cc(F)cc(F)c2c1N1CC(C)(C)c2ncc(N3CCOCC3)cc21 [4-(3,3-dimethyl-6-(4-morpholinyl)-2,3-dihydro-1H-pyrrolo[3,2-b]pyridin-1-yl)-5,7-difluoro-3-methyl-2-((E)-2-phenylethenyl)quinoline] | 88.3
Cc1c(-c2ccccn2)nc2c(C)ccc(F)c2c1N1CC(C)(C)c2ncc(N3CCOCC3)cc21 [4-(3,3-dimethyl-6-(4-morpholinyl)-2,3-dihydro-1H-pyrrolo[3,2-b]pyridin-1-yl)-5-fluoro-3,8-dimethyl-2-(2-pyridinyl)quinoline] | 4.07
Cc1c(-c2ccccn2)nc2cccc(F)c2c1N1CC(C)(C)c2ncc(N3CCOCC3)cc21 [4-(3,3-dimethyl-6-(4-morpholinyl)-2,3-dihydro-1H-pyrrolo[3,2-b]pyridin-1-yl)-5-fluoro-3-methyl-2-(2-pyridinyl)quinoline] | 3.33
CC1(C)CN(c2c(C#N)c(-c3ccccn3)nc3cc(F)ccc23)c2cc(N3CCOCC3)cnc21 [4-(3,3-dimethyl-6-(4-morpholinyl)-2,3-dihydro-1H-pyrrolo[3,2-b]pyridin-1-yl)-7-fluoro-2-(2-pyridinyl)-3-quinolinecarbonitrile] | 437
CC(C)c1c(-c2ccccn2)nc2cc(F)ccc2c1N1CC(C)(C)c2ncc(N3CCOCC3)cc21 [4-(3,3-dimethyl-6-(4-morpholinyl)-2,3-dihydro-1H-pyrrolo[3,2-b]pyridin-1-yl)-7-fluoro-3-(1-methylethyl)-2-(2-pyridinyl)quinoline] | 5.87
Cc1c(-c2ccccc2S(C)(=O)=O)nc2cc(F)ccc2c1N1CC(C)(C)c2ncc(N3CCOCC3)cc21 [4-(3,3-dimethyl-6-(4-morpholinyl)-2,3-dihydro-1H-pyrrolo[3,2-b]pyridin-1-yl)-7-fluoro-3-methyl-2-(2-(methylsulfonyl)phenyl)quinoline] | 7.8
Cc1ncccc1-c1nc2cc(F)ccc2c(N2CC(C)(C)c3ncc(N4CCOCC4)cc32)c1C [4-(3,3-dimethyl-6-(4-morpholinyl)-2,3-dihydro-1H-pyrrolo[3,2-b]pyridin-1-yl)-7-fluoro-3-methyl-2-(2-methyl-3-pyridinyl)quinoline] | 4.07
Cc1c(-c2ccccn2)nc2cc(F)ccc2c1N1CC(C)(C)c2ncc(N3CCOCC3)cc21 [4-(3,3-dimethyl-6-(4-morpholinyl)-2,3-dihydro-1H-pyrrolo[3,2-b]pyridin-1-yl)-7-fluoro-3-methyl-2-(2-pyridinyl)quinoline] | 6.76
Cc1ccnc(-c2nc3cc(F)ccc3c(N3CC(C)(C)c4ncc(N5CCOCC5)cc43)c2C)c1 [4-(3,3-dimethyl-6-(4-morpholinyl)-2,3-dihydro-1H-pyrrolo[3,2-b]pyridin-1-yl)-7-fluoro-3-methyl-2-(4-methyl-2-pyridinyl)quinoline] | 4.17
Cc1c(Nc2ccccn2)nc2cc(F)cc(F)c2c1N1CC(C)(C)c2ncc(N3CCOCC3)cc21 [4-(3,3-dimethyl-6-morpholino-2,3-dihydro-1H-pyrrolo[3,2-b]pyridin-1-yl)-5,7-difluoro-3-methyl-N-(pyridin-2-yl)quinolin-2-amine] | 17.1
Cc1c(-c2ccccn2)nc2ncccc2c1N1CCOc2ccc(N3CCOCC3)cc21 [4-(3-methyl-2-(2-pyridinyl)-1,8-naphthyridin-4-yl)-6-(4-morpholinyl)-3,4-dihydro-2H-1,4-benzoxazine] | 883
Cc1c(-c2ccccn2)nc2cc(F)ccc2c1N1CC(C)(C)c2nc(Br)c(N3CCOCC3)cc21 [4-(5-bromo-3,3-dimethyl-6-(4-morpholinyl)-2,3-dihydro-1H-pyrrolo[3,2-b]pyridin-1-yl)-7-fluoro-3-methyl-2-(2-pyridinyl)quinoline] | 33.3
Cc1ccnc(-c2nc3ncccc3c(N3CC(C)(C)c4nc(Cl)c(N5CCOCC5)cc43)c2C)c1 [4-(5-chloro-3,3-dimethyl-6-(4-morpholinyl)-2,3-dihydro-1H-pyrrolo[3,2-b]pyridin-1-yl)-3-methyl-2-(4-methyl-2-pyridinyl)-1,8-naphthyridine] | 68.7

Structure (SMILES) | Ki [nM]
Cc1c(-c2ccccn2)nc2cc(F)ccc2c1N1CC(C)(C)c2nc(Cl)c(N3CCOCC3)cc21 [4-(5-chloro-3,3-dimethyl-6-(4-morpholinyl)-2,3-dihydro-1H-pyrrolo[3,2-b]pyridin-1-yl)-7-fluoro-3-methyl-2-(2-pyridinyl)quinoline] | 3.16
Cc1c(-c2ccccc2F)nc2cccc(F)c2c1N1CCS(=O)(=O)c2ccc(N3CCOCC3)cc21 [4-(5-fluoro-2-(2-fluorophenyl)-3-methyl-4-quinolinyl)-6-(4-morpholinyl)-3,4-dihydro-2H-1,4-benzothiazine 1,1-dioxide] | 23.5
Cc1c(-c2ccccn2)nc2cc(F)ccc2c1N1CC(C)(C)c2ncc(C3=CCOCC3)cc21 [4-(6-(3,6-dihydro-2H-pyran-4-yl)-3,3-dimethyl-2,3-dihydro-1H-pyrrolo[3,2-b]pyridin-1-yl)-7-fluoro-3-methyl-2-(2-pyridinyl)quinoline] | 6.47
Cc1nc2ccc(Cl)cc2c(N2CCOc3ccc(N4CCOCC4)cc32)c1C [4-(6-chloro-2,3-dimethyl-4-quinolinyl)-6-(4-morpholinyl)-3,4-dihydro-2H-1,4-benzoxazine] | 1260
COc1cc2nc(C)c(C)c(N3CCS(=O)(=O)c4ccc(N5CCOCC5)cc43)c2cc1Cl [4-(6-chloro-7-methoxy-2,3-dimethyl-4-quinolinyl)-6-(4-morpholinyl)-3,4-dihydro-2H-1,4-benzothiazine 1,1-dioxide] | 28
Cc1c(-c2ccccn2)nc2cc(F)ccc2c1N1CCOc2ccc(N3CCOCC3)cc21 [4-(7-fluoro-3-methyl-2-(2-pyridinyl)-4-quinolinyl)-6-(4-morpholinyl)-3,4-dihydro-2H-1,4-benzoxazine] | 351
Cc1c(-c2ccccn2)nc2cc(F)ccc2c1N1CC(C)(C)c2ccc(-c3nc(N)ncc3Cl)cc21 [5-chloro-4-(1-(7-fluoro-3-methyl-2-(2-pyridinyl)-4-quinolinyl)-3,3-dimethyl-2,3-dihydro-1H-indol-6-yl)-2-pyrimidinamine] | 1430
Cc1c(-c2ccccc2F)nc2cccc(Cl)c2c1N1CC(C)(C)c2ccc(N3CCOCC3)cc21 [5-chloro-4-(3,3-dimethyl-6-(4-morpholinyl)-2,3-dihydro-1H-indol-1-yl)-2-(2-fluorophenyl)-3-methylquinoline] | 890
Cc1c(-c2ccccn2)nc2cc(F)ccc2c1N1CC2(CCOCC2)c2nc(Cl)c(N3CCOCC3)cc21 [5′-chloro-1′-(7-fluoro-3-methyl-2-(2-pyridinyl)-4-quinolinyl)-6′-(4-morpholinyl)-1′,2,2′,3,5,6-hexahydrospiro[pyran-4,3′-pyrrolo[3,2-b]pyridine]] | 13.3
Cc1c(-c2cccc(=O)[nH]2)nc2cc(F)ccc2c1N1CC(C)(C)c2ncc(N3CCOCC3)cc21 [6-(4-(3,3-dimethyl-6-(4-morpholinyl)-2,3-dihydro-1H-pyrrolo[3,2-b]pyridin-1-yl)-7-fluoro-3-methyl-2-quinolinyl)-2(1H)-pyridinone] | 14.7
Cc1nc2c(C)cccc2c(N2CC3(CCOCC3)c3ccc(N4CCOCC4)cc32)c1C [6-(4-morpholinyl)-1-(2,3,8-trimethyl-4-quinolinyl)-1,2,2′,3′,5′,6′-hexahydrospiro[indole-3,4′-pyran]] | 121
Cc1c(-c2cccc(O)n2)nc2cc(F)ccc2c1N1CC2(CCOCC2)c2ccc(N3CCOCC3)cc21 [6-(7-fluoro-3-methyl-4-(6-(4-morpholinyl)-2′,3′,5′,6′-tetrahydrospiro[indole-3,4′-pyran]-1(2H)-yl)-2-quinolinyl)-2-pyridinol] | 155
COc1cc2nc(C)c(C)c(N3CC4(CCOCC4)c4ccc(Br)cc43)c2cc1Cl [6-bromo-1-(6-chloro-7-methoxy-2,3-dimethyl-4-quinolinyl)-1,2,2′,3′,5′,6′-hexahydrospiro[indole-3,4′-pyran]] | 571
Cc1nc2ccc(Cl)cc2c(N2CC(C)(C)c3ccc(-c4cn[nH]c4)cc32)c1C [6-chloro-4-(3,3-dimethyl-6-(1H-pyrazol-4-yl)-2,3-dihydro-1H-indol-1-yl)-2,3-dimethylquinoline] | 9530
Cc1nc2c(C)cc(Cl)cc2c(N2CC(C)(C)c3ccc(N4CCOCC4)cc32)c1C [6-chloro-4-(3,3-dimethyl-6-(4-morpholinyl)-2,3-dihydro-1H-indol-1-yl)-2,3,8-trimethylquinoline] | 618
COc1ccccc1-c1cc(N2CC(C)(C)c3ccc(N4CCOCC4)cc32)c2cc(Cl)ccc2n1 [6-chloro-4-(3,3-dimethyl-6-(4-morpholinyl)-2,3-dihydro-1H-indol-1-yl)-2-(2-methoxyphenyl)quinoline] | 5560
CCc1c(C)nc2ccc(Cl)cc2c1N1CC(C)(C)c2ccc(N3CCOCC3)cc21 [6-chloro-4-(3,3-dimethyl-6-(4-morpholinyl)-2,3-dihydro-1H-indol-1-yl)-3-ethyl-2-methylquinoline] | 1130
